Columns and labels:
Assay type in all cases: in vivo, mouse
[1] = Plasma concentration of compound in DIO mice over 24 hours; conditions: 30 mg/kg p.o. + sitagliptin 10 mg/kg, 6, 12, 18, 24 h
Method: Plasma Concentration of Compound in Mice
In these studies, the plasma concentration of the compounds of the present invention was measured in DIO mice as well as lean C57BL/6N mice.
In the first study, (data represented in FIG. 10), plasma concentration levels were measured over a 24 hour time period in DIO mice. Following the treatment with the compound, the blood was collected via cardiac puncture at 6, 12, 18, and 24 hours. The blood samples (>250 μL) were placed in an EDTA K^2+ tube and plasma was processed for analytical chemistry and analyzed by LCMS/MS method as described in Example 81. FIG. 10 depicts the plasma concentrations of Compound 268 after oral administration at 30 mg/kg in combination with 10° mg/kg sitagliptin. The plasma concentrations of Compound 268 were below 10 nM at every tested time points.

GLP-1 [2] = assay: GLP-1 levels after chronic dosing (5 days) in DIO mice; conditions: 30 mg/kg + sitagliptin 10 mg/kg p.o., after dose 2 and dose 10 (5 days), versus sitagliptin alone
Method: GLP-1 Levels after Chronic Dosing of Compounds
The chronic dosing of compounds of the present invention was evaluated to determine if they produce sustained GLP-1 levels.
Male DIO mice were received at 12 weeks of age (from Taconic), and were single-housed at the testing facility and acclimated for at least 2 weeks. The mice were provided a high fat diet [Research Diet D12492 (60% Fat kcal)] while in the testing facility. Before the study initiation, the animals were randomized into 18 experimental groups by body weight. The first 10 groups were administered with sitagliptin alone at 10 mg/kg or sitagliptin (10 mg/kg)+Compound 268 at 30 mg/kg by oral gavage and then again 14 hours later (except for one sitagliptin treated and one sitagliptin+Compound 268 treated groups that were euthanized 14° hours after the first dose). The remaining mice were euthanized at 3, 6, or 9 hours after the second dose to collect blood for GLP-1 measurements and bile weights. The remaining 8 groups were administered by oral gavage with sitagliptin alone at 10 mg/kg or sitagliptin (10 mg/kg)+Compound 268 at 30 mg/kg every 10 or 14 hours for 5 days. […] The active form of GLP-1 [GLP-1 (7-36) amide] was analyzed using Meso Scale Discovery System according to the manufacturer's instruction. […]

GLP-1 [3] = assay: Plasma GLP-1 time course after a single oral dose in DIO mice; conditions: 30 mg/kg + sitagliptin versus sitagliptin alone, 6-24 h
Method: In this study, we evaluated if the observed GLP-1 elevation (induced by the compounds of the present invention) may be associated with gallbladder filling. We treated mice with Compound 268 and monitored the bile weight (a measure that indicated gallbladder filling) to determine if the compound retained more bile in the gallbladder as compared to the control mice (i.e., vehicle alone). A time course study was performed to measure weight of the bile aspirated from the gallbladder after oral administration of Compound 268 (30 mg/kg) in high fat diet induced obese (DIO) mice. In this study, GLP-1 levels were also measured at each time point (FIG. 9).
Approximately 12 week old DIO male mice (obtained from Taconic) were acclimated in the testing facility for over two weeks. The mice were provided a high fat diet [Research Diet D12492 (60% Fat kcal)] while in the testing facility. […] The blood samples were distributed as follows: 150-200 μL of blood were placed in an EDTA K^2+ tube containing 5 μL of 40 mg/mL aprotinin (Sigma A1153) and 1 μL of 10 mM sitagliptin (Sigma 58576) to be used for GLP-1 measurements; the remaining blood (≥250 μL) was placed in an EDTA K^2+ tube and plasma was processed for analytical chemistry and analyzed by LCMS/MS method as described in Example 81. […]

[4] = Bile weight in lean C57BL/6N mice after OGTT; conditions: 30 mg/kg + sitagliptin 3 mg/kg p.o., 6 h, versus sitagliptin alone
Method: In addition, bile weight was determined in the OGTT study on lean mice described in Example 84 above. At the end of that study, bile was removed from the gallbladder and weighed to approximate volume of bile contained within the gallbladder.
FIG. 7 depicts bile weight in DIO mice at 6, 12, 18, and 24 hours after oral administration of 10 mg/kg sitagliptin alone or 10 mg/kg sitagliptin+30 mg/kg Compound 268. FIG. 8 depicts the comparison in bile weight between sitagliptin (3 mg/kg, p.o.) and Compound 268 (30 mg/kg, p.o.)+sitagliptin (3 mg/kg, p.o.) following an OGTT assay in lean C57BL/6N mice, 6 hours after treatment. FIG. 9 illustrates plasma GLP-1 levels from the DIO mice at the same time points.

## N#Cc1ccc(CCNC(=O)[C@@H]2CCN2c2cc(N3CCC(CCNC(=O)NCCC(=O)O)CC3)nc(C(F)(F)F)n2)cc1 [Compound 268, (S)-3-(3-(2-(1-(6-(2-((4-cyanophenethyl)carbamoyl)azetidin-1-yl)-2-(trifluoromethyl)pyrimidin-4-yl)piperidin-4-yl)ethyl)ureido)propanoic acid]
[1]
  plasma concentration of compound: below 10 nM
GLP-1 [2]
  plasma GLP-1 level after chronic dosing: significantly increased level of GLP-1
GLP-1 [3]
  plasma GLP-1 levels: significant elevation of GLP-1 levels
[4]
  bile weight: no significant differences in bile weight
